# Source: patent publication US20260007641A1, “PHARMACEUTICAL COMPOSITION FOR TREATING AND RESISTING BLOOD COAGULATION AND USE THEREOF” (CHENGDU SHIBEIKANG BIOMEDICAL TECHNOLOGY CO., LTD., priority 2022, published 2026)
# Legend:
# [1] = from Literature 1; cited from earlier work
# [2] = Solubility and BCS classification of compound A; type: physicochemical
BCS (Biopharmaceutics Classification System) class [2],solubility in acetone ([2]; acetone),solubility in ethanol ([2]; ethanol),solubility in methanol ([2]; methanol),solubility in toluene ([2]; toluene),solubility in water ([2]; water),Compound,share of clopidogrel metabolized to compound A after oral intake [1] [%]
,,,,,,COC(=O)[C@H](c1ccccc1Cl)N1CCc2sccc2C1 [clopidogrel],15
low solubility and high permeability,very slightly soluble,slightly soluble,hardly soluble,almost insoluble,very slightly soluble,"COC(=O)[C@H](c1ccccc1Cl)N1CC[C@@H]2SC(=O)C=C2C1 [Compound A, methyl(S)-2-(2-chlorophenyl)-2-((S)-2-oxo-2,6,7,7a-tetrahydrothiophene [3,2-c]pyridin-5 (4H)-yl)acetate]",
